Consider one molecule from patent US10106523B2, “Amide compound” (ASTELLAS PHARMA INC., priority 2014, dated 2018).

Each structure is given as a SMILES string.

One experiment has as its target rat EP4 receptor (Rattus norvegicus, UniProt P43114). Briefly: Evaluation test of rat EP4 receptor affinity ([3H]PGE2 binding, membrane fraction of HEK-293 cells). Details: expressed in transfected cells; host or cells: HEK-293 (ATCC CRL-1573), transient. Particulars: 0.3 nmol/L [3H]PGE2, rat EP4 cell membrane fraction, room temperature 1 hour; read-out: Ki value with respect to the rat EP4 receptor. The method, then:
Test Example 1: Evaluation Test of Rat EP4 Receptor Affinity
Construction of Rat EP4 Receptor Expressing Vector:
A rat EP4 receptor gene (GenBank accession No.: NM_032076.1) was transfected into an expression vector pcDNA3.1-V5-His-TOPO (Invitrogen Inc.).
Transient Expression of Rat EP4 Receptor:
The expression vector of a rat EP4 receptor was transfected into an HEK-293 cell (ATCC No.: CRL-1573). The transfection was carried out according to an appended instruction, using Lipofectoamine (registered trademark) 2000 reagent (Invitrogen Inc.). After the transfection, the cells were cultured in an α-MEM culture medium for 20 to 24 hours.
Preparation of Membrane Fraction:
The culture medium was removed by aspiration, 10 mL of cooled phosphate buffered saline (PBS) was added thereto per 15 cm dish, and the cells were scraped using a cell scraper (Sumitomo Bakelite). […]
[^3H]PGE2 and a cell membrane fraction were diluted with an assay buffer (50 mmol/L HEPES-NaOH, 10 mmol/L MgCl2, pH 7.5), and the test compound and unlabeled PGE2 (Cayman) were diluted with DMSO and the assay buffer. […] The radioactivity was measured using a TopCount (Perkin Elmer). […] The specific binding amount was determined by subtracting the non-specific binding amount from the total binding amount. The Ki value was calculated according to a standard method.

A further experiment has as its target T1, human EP4 receptor (Homo sapiens, UniProt P35408).
T1 construct: purchased Chemicon
Briefly: Evaluation test of human EP4 receptor affinity ([3H]PGE2 binding, membrane fraction). The following applies: 2.9 nmol/L [3H]PGE2, human EP4 cell membrane fraction, 25° C. 60 minutes; read-out: Ki value with respect to the human EP4 receptor. The method, then:
Test Example 2: Evaluation Test of Human EP4 Receptor Affinity
[^3H]PGE2 and a human EP4 cell membrane fraction (Chemicon) were diluted with an assay buffer (50 mmol/L HEPES-NaOH, 5 mmol/L MgCl2, 1 mmol/L CaCl2 (pH 7.4), 0.5% bovine serum albumin (BSA)), and the test compound and unlabeled PGE2 (Sigma) were diluted with DMSO and the assay buffer. The composition of the reaction liquid (250 μL) was set to be as follows: 175 μL of an assay buffer containing [^3H]PGE2 (final concentration of 2.9 nmol/L), 50 μL of a membrane fraction (Chemicon, 40 μg protein/mL), and 25 μL of a test compound (final concentrations of 0.1, 1, 10, 100, and 1000 nmol/L). For the measurement of the non-specific binding, the unlabeled PGE2 was added to a final concentration of 10 μmol/L. The final concentration of DMSO was set to 1%. The reaction liquid was incubated at 25° C. for 60 minutes. The reaction liquid was filtered with a GF/C filter paper (Whatman), using a cell harvester (Brandel). The filter paper after filtration was washed three times with 1 mL of a solution containing 50 mmol/L HEPES-NaOH (pH 7.4), 500 mmol/L NaCl, and 0.1% BSA. […] The radioactive activity was measured using a liquid scintillation counter (Perkin Elmer). […] The specific binding amount was determined by subtracting the non-specific binding amount from the total binding amount. The Ki value was calculated according to a standard method.

By Ki is commonly meant a measure of affinity in units of concentration, obtained from inhibition or displacement.

T1 sequence (P35408 whole entry): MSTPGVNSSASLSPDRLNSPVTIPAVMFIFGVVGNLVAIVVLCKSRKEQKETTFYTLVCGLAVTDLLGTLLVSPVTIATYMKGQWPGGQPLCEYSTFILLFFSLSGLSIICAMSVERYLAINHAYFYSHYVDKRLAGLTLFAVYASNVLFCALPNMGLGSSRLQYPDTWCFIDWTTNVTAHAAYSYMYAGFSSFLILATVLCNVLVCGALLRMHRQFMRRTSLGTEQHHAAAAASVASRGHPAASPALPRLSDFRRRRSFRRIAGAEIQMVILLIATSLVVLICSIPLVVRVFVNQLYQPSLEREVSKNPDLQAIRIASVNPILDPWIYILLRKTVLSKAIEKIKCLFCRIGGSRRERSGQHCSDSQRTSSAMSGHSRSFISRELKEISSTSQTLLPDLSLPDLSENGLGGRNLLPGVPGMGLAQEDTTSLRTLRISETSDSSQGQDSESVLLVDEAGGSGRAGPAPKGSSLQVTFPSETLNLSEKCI
Sequence of rat EP4 receptor (P43114 whole entry): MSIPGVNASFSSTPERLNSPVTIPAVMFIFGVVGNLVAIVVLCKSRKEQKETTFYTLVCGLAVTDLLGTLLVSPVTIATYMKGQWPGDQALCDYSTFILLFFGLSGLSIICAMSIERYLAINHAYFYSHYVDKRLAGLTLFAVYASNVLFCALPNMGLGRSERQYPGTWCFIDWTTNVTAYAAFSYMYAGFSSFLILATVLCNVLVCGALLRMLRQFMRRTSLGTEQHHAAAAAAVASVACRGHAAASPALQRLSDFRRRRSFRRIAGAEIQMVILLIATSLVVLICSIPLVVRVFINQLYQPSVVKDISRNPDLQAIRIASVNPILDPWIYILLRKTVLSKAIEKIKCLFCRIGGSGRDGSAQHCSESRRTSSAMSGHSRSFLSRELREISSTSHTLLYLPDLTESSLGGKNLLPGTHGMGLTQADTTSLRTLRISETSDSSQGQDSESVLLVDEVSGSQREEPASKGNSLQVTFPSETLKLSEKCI

For the molecule `Cc1nn(Cc2cc3ccccc3cn2)c(C(=O)N[C@@H](C)c2ccc(C(=O)O)cc2)c1Br` [Compound A, 4-[(1S)-1-({[4-bromo-1-(isoquinolin-3-ylmethyl)-3-methyl-1H-pyrazol-5-yl]carbonyl}amino)ethyl]benzoic acid], the Ki at rat EP4 receptor came out at 0.874 nM; at human EP4 receptor it was 1.46 nM.
